According to publication PMC11297040, “Engineering of a mammalian VMAT2 for cryo-EM analysis results in non-canonical protein folding” (Nature Communications, 2024):

Tests used:
[1] = biological target: T1, OaVMAT2WT (Ovis aries, UniProt A0A6P7DBQ8); assay: microscale thermophoresis (RED-Tris-NTA labelled protein); format: binding
T1 construct: gene JEQ12_011695; full-length wild type; N-terminal His10-BRIL-TEV and C-terminal TEV-BRIL-His10 tags, released by TEV cleavage (called His-tagged in MST); Pichia pastoris GS115; DDM; monomer on crosslinking
T1 sequence (A0A6P7DBQ8 1-517): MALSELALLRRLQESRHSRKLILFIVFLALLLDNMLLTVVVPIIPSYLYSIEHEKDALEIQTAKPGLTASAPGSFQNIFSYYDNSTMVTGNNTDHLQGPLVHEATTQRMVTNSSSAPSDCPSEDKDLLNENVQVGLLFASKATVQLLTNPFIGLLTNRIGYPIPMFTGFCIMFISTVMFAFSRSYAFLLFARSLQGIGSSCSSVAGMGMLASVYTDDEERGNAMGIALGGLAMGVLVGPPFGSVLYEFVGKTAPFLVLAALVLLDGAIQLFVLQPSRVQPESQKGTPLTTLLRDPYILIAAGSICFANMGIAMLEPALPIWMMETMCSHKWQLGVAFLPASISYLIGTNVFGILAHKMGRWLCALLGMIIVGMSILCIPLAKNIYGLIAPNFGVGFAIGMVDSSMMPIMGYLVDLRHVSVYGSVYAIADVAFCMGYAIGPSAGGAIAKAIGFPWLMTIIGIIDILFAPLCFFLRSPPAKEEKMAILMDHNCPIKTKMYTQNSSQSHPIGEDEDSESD

[2] = biological target: T2, XlVMAT2WT (Xenopus laevis, UniProt A0A1L8FIB7); assay: as above; format: binding
T2 construct: gene LOC108696020; full-length wild type, 514 residues, monomer; N-terminal His10-BRIL-TEV and C-terminal TEV-BRIL-His10 tags, released by TEV cleavage (called His-tagged in MST); Pichia pastoris GS115; DDM
T2 sequence (A0A1L8FIB7 1-514): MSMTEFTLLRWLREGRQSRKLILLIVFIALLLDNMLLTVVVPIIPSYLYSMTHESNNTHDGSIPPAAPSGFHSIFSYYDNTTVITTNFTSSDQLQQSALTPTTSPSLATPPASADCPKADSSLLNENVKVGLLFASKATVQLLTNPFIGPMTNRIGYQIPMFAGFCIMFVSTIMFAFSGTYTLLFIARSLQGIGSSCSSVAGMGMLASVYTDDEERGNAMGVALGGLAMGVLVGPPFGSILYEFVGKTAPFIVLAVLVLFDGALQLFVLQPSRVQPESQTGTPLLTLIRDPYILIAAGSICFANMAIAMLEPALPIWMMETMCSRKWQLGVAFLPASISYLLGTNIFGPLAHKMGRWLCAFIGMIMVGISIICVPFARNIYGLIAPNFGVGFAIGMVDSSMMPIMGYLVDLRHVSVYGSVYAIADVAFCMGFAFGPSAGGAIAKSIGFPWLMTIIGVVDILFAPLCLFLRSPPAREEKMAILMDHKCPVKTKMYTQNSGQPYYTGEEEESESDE

[3] = biological target: T3, HsVMAT2 (Homo sapiens, UniProt Q05940); assay: as above; format: binding
T3 construct: gene SLC18A2; full-length; N-terminal His10-BRIL-TEV and C-terminal TEV-BRIL-His10 tags, released by TEV cleavage (called His-tagged in MST); Pichia pastoris GS115; DDM
T3 sequence (Q05940 whole entry): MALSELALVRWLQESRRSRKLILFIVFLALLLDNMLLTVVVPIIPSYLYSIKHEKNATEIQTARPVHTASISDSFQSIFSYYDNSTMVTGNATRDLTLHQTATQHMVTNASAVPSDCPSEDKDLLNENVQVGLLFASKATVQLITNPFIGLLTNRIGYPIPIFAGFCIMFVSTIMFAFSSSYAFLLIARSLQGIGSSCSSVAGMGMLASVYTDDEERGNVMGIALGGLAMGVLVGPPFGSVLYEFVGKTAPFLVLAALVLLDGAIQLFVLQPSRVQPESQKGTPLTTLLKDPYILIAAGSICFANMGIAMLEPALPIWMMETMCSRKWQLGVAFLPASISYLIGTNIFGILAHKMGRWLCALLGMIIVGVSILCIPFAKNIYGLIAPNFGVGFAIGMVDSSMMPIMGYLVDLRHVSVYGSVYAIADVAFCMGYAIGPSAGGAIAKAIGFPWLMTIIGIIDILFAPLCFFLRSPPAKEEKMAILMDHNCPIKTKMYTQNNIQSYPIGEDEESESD
Description: microscale thermophoresis (RED-Tris-NTA labelled protein) on HsVMAT2 | MST fitting curves of SER binding to HsVMAT2 WT and variants as indicated

[4] = biological target: T4, HsVMAT2 (Homo sapiens, UniProt Q05940, D399A); assay: as above; format: binding
T4 construct: gene SLC18A2; full-length; N-terminal His10-BRIL-TEV and C-terminal TEV-BRIL-His10 tags, released by TEV cleavage (called His-tagged in MST); Pichia pastoris GS115; DDM
T4 sequence (Q05940 whole entry D399A): as the sequence (Q05940 whole entry) above, with D399A counted along it

[5] = biological target: T5, HsVMAT2 (Homo sapiens, UniProt Q05940, V232A); assay: as above; format: binding
T5 construct: gene SLC18A2; full-length; N-terminal His10-BRIL-TEV and C-terminal TEV-BRIL-His10 tags, released by TEV cleavage (called His-tagged in MST); Pichia pastoris GS115; DDM
T5 sequence (Q05940 whole entry V232A): as the sequence (Q05940 whole entry) above, with V232A counted along it
Description: (§1) microscale thermophoresis (RED-Tris-NTA labelled protein) on HsVMAT2 | L228A, V232A, E312A, Y341A, D399A and Y433A, reduced their binding affinities for serotonin

[6] = biological target: T6, HsVMAT2 (Homo sapiens, UniProt Q05940, L228A); assay: as above; format: binding
T6 construct: gene SLC18A2; full-length; N-terminal His10-BRIL-TEV and C-terminal TEV-BRIL-His10 tags, released by TEV cleavage (called His-tagged in MST); Pichia pastoris GS115; DDM
T6 sequence (Q05940 whole entry L228A): as the sequence (Q05940 whole entry) above, with L228A counted along it
Description: as §1

[7] = biological target: T7, HsVMAT2 (Homo sapiens, UniProt Q05940, Y341A); assay: as above; format: binding
T7 construct: gene SLC18A2; full-length; N-terminal His10-BRIL-TEV and C-terminal TEV-BRIL-His10 tags, released by TEV cleavage (called His-tagged in MST); Pichia pastoris GS115; DDM
T7 sequence (Q05940 whole entry Y341A): as the sequence (Q05940 whole entry) above, with Y341A counted along it
Description: as §1

[8] = biological target: T8, HsVMAT2 (Homo sapiens, UniProt Q05940, Y433A); assay: as above; format: binding
T8 construct: gene SLC18A2; full-length; N-terminal His10-BRIL-TEV and C-terminal TEV-BRIL-His10 tags, released by TEV cleavage (called His-tagged in MST); Pichia pastoris GS115; DDM
T8 sequence (Q05940 whole entry Y433A): as the sequence (Q05940 whole entry) above, with Y433A counted along it
Description: as §1

[9] = biological target: OaVMAT2_(TM8/9-BRIL): sheep (Ovis aries) VMAT2 with the TM8/9 loop replaced by BRIL (Ovis aries | not stated); assay: cross-linking; ~10 ug purified protein in 20 mM HEPES-Na pH 7.5, 150 mM NaCl, 5 mM beta-mercaptoethanol, 0.4 mM DDM; glutaraldehyde 4, 2 and 1 mM, 10 min, room temperature; SDS-PAGE
[10] = biological target: OaVMAT2_(TM8/9-BRIL): sheep (Ovis aries) VMAT2 with the TM8/9 loop replaced by BRIL (Ovis aries | not stated); assay: cryo-EM structure; single-particle analysis of OaVMAT2_(TM8/9-BRIL) in 20 mM Tris-HCl pH 7.5, 150 mM NaCl, 5 mM beta-mercaptoethanol, 0.4 mM DDM; C2 symmetry imposed; 3.2 A

| Kd [3] [nM] | Kd [4] [nM] | Kd [5] [nM] | Kd [6] [nM] | Kd [7] [nM] | Kd [8] [nM] | stoichiometry N [9] | stoichiometry N [10] | Molecule | Kd [1] [nM] | Kd [2] [nM] |
| --- | --- | --- | --- | --- | --- | --- | --- | --- | --- | --- |
| 450 ± 50 | 22100 ± 3600 | 3850 ± 1610 | 3150 ± 550 | 810 ± 220 | 3910 ± 1300 | – | – | NCCc1c[nH]c2ccc(O)cc12 [serotonin] | 210 ± 60 | 430 ± 220 |
| – | – | – | – | – | – | 2 | 2 | OaVMAT2_(TM8/9-BRIL): sheep (Ovis aries) VMAT2 with the TM8/9 loop replaced by BRIL | – | – |
| – | – | – | – | – | – | – | – | COC(=O)[C@H]1[C@H]2C[C@@H]3c4[nH]c5cc(OC)ccc5c4CCN3C[C@H]2C[C@@H](OC(=O)c2cc(OC)c(OC)c(OC)c2)[C@@H]1OC [reserpine] | 16 ± 5.7 | 17 ± 8.8 |
